This is an account of results in US20170233637A1, “METHODS FOR INHIBITING METAL CORROSION” (OHIO UNIVERSITY, priority 2014, published 2017).

SMILES strings stand for the structures. In brackets after ≈: the same amount, converted by molar mass. Several values for one entry are separate records, joined by “and”; a condition that tells them apart may be missing. Equal entries are not always repeated. Where two headings read alike, the source gives them in different places.

The conditions of data set [1]: cited from earlier work; for Calculated vapor pressure: at 200° C., Yaws and Yang 1989; for Pvapor (vapor pressure): at 25° C.
The conditions of data set [2]: cited from earlier work; for Solubility: at 77° C.; for Water solubility: temperature not given.
Data set [3] can be described thus: Efficacy test of VCI candidates for top of the line corrosion (weight loss, ASTM G1; surface analysis). The settings on record: for TLC rate (weight loss): 2 days; for TLC rate (weight loss) / TLC rate: uninhibited 1.06 mm/y; for surface of the X65 TLC specimen: 100 and 400 ppmv in the bulk, after 2 days. The method, then:
The temperatures of the bottom solution and gas phases were controlled by a heater, while temperature of the specimen at the top was controlled by cooling water. Through coil 20, a condenser 22 was used to prevent water and VCI vapor loss.
In the VCI efficacy test, corrosion rate of the specimen at the top (TLC rate) was measured by weight loss following the ASTM G1 standard. Sample surface was characterized by Scanning Electron Microscopy (SEM)/Energy Dispersive X-ray Spectroscopy (EDS).
1-hexanethiol, 1-decanethiol and 1-dodecanethiol were chosen based on the results in the VCI screening test, data from which will be shown below. In addition, the effect of acetic acid and MEG on the inhibition performance of the best VCI candidate was also taken into account.
For the efficacy tests of VCI candidates for TLC, 1 wt % NaCl was also prepared and purged with CO2 for 2 hours. In order to have a gas temperature of 65° C., the bottom solution was heated to 77° C. After that the selected concentration of the VCI candidates (Table 3) was added into the bulk solution. A weight loss specimen 24, after being ground (with up to 600 grit abrasive paper), was flush-mounted at the top of the experimental setup, controlling its temperature at 32° C. using cooling water. The weight loss sample and ER probe were added 0.1 hour after addition of the VCI candidate. The weight loss samples were withdrawn after 48 hours for surface analysis and weight loss measurement.
FIG. 15 indicates the conditions for the TLC tests. The temperatures at the bottom, in the vapor phase, and at the top were 77° C., 65° C., and 32° C. respectively. The experiment was performed in the CO2 environment (total pressure=1 atm).

Data set [4] in a line: Solubility in water of VCI candidates. The note with it: at 25° C.; converted to ppm by volume using density value.
Data set [5] is described as follows: VCI screening in bulk solution (BLC rate by linear polarization resistance, OCP, solution pH). The settings on record: for inhibition properties in the tested water phase (VCI screening in bulk solution): 400 ppmv, 1 wt % NaCl. Here is the method:
Other measurements of the effectiveness of the VCI composition to inhibit corrosion may be derived from Open Circuit Potential (OCP) and Linear Polarization Resistance (Rp) experiments. In the volatile thiol screening test, a potentiostat was used to measure the Rp and the OCP of the ferrous metal sample. Corrosion rate in the water phase (BLC rate) is proportional to the corrosion current density (icorr), which was then calculated by using a B constant value of 0.026 V/decade (icorr=B/Rp/S in which S is surface area of the sample).
A three electrode system was used in which an X65 rotating cylinder electrode (1000 RPM) was the working electrode 12, a Pt wire was used as counter electrode 14, and Ag/AgCl as the reference electrode 16. A pH probe 18 was used to measure the pH of the solution before and after adding the VCI candidates. The experiments were performed at 25° C. and 1 bar total pressure (pCO2=0.96 bar).
In the VCI screening test, a potentiostat was used to measure the polarization resistance (Rp) of the X65 sample. Corrosion rate in the water phase (BLC rate) is proportional to the corrosion current density (icorr) which was then calculated by using a B constant value of 0.026 V/decade (icorr=B/Rp/S in which S is surface area of the sample).
A baseline test was performed in the absence of the VCI candidate compound. […] Dibutyl sulfide was used to compare the sulfide functional group versus the thiol functional group.
For the VCI screening tests, a 1 wt % NaCl solution was prepared and purged with CO2 for 2 hours at 25° C. before injecting the VCI candidate. […] After that the Open Circuit Potential (OCP) and Linear Polarization Resistance (LPR) were measured every 10 minutes during an exposure time of 3-4 hours. The pH of the solution was measured before and after adding the VCI candidate. Electrolyte resistance (ER) was measured by Electrochemical Impedance Spectroscopy (EIS).

The conditions of data set [6]: carbon dioxide saturated environment; cited from earlier work.
Where [7] appears, read: at 25° C., data from www.lookchem.com.
[8] abbreviates: 400 ppmv VCI added before electrode insertion, CO2 saturated 1 wt % NaCl, 25° C., baseline 2.3 mm/y.

With `CCCCCCCCCCCCCCCCCCS` [C18], the Calculated vapor pressure in data set [1] was 6.79 mmHg.

As for `O=C(O)CCCCCCCCCCS` [11-MUA, 11-mercaptoundecanoic acid], in data set [1], the “Pvapor (vapor pressure)” value was 3.7 × 10^−5 mmHg. In data set [2], the Solubility is given as 89 ppmV and the Water solubility result was “about 13.8 mg/L”. Besides, the “TLC rate (weight loss)” value in data set [3] (100 ppmV at the bottom) came to 0.02 mm/y.

For `CCCCCCS` [1-hexanethiol], in data set [1], the “Pvapor (vapor pressure)” value is reported as 4.5 mmHg. The Solubility limit in data set [2] (setting [7]) was 177.1 mg/L (≈ 1500 µM). The Solubility in data set [2] is 1013.0 ppmV; in data set [4], 212.35 ppmV and 212.4 ppmV. Besides, the Water solubility result in data set [2] is “about 177.1 mg/L”. The “surface of the X65 TLC specimen” value in data set [3] is “partially protected”. Further, the “TLC rate (weight loss)” value was 0.11 mm/y in data set [3] (100 ppmV at the bottom) and 0.13 mm/y in data set [3] (400 ppmV at the bottom). Besides, the “TLC rate, times lower than the baseline test” value in data set [3] (100 ppmv and 400 ppmv in the bulk) came to 10 times. Besides, the localized corrosion rate in data set [3] (400 ppmv in the bulk, profilometry after removing corrosion product, 2 day experiment) is 1.46 mm/y. For the same molecule, in data set [3] (400 ppmv in the bulk, profilometry, 2 day experiment), the “depth of the deepest pit on the surface” value is “about 8 micrometers”. The BLC rate in data set [5] (setting [8]) is 0.01 mm/y. In addition, the “inhibition properties in the tested water phase (VCI screening in bulk solution)” value (shortened to “inhibition properties”) in data set [5] was “had inhibition properties”.

Regarding `OCCCCCCCCCCCS` [11-Mercapto-1-undecanol], the Water solubility result in data set [2] is “about 10.3 mg/L”.

With `CCCCCCCCCCCCCCCS` [C15], the Calculated vapor pressure in data set [1] is reported as 26.5 mmHg.

Turning to `CCCCCCCCCCS` [1-decanethiol], in data set [1], the “Pvapor (vapor pressure)” value is 0.06 mmHg. In addition, the Solubility limit was 2.14 mg/L (≈ 12.3 µM) in data set [2] (setting [7]) and 3.63 ppmv in data set [2] (at 32° C.). In data set [2], the Solubility was 24.8 ppmV. Further, in data set [2], the Water solubility was ~2.14 µg/mL. For the same molecule, the results for the TLC rate in data set [3] (1 ppmv at the bottom) and in data set [3] (10 ppmv at the bottom) were 0.21 mm/y and 0.12 mm/y, respectively. Moreover, the “surface of the X65 TLC specimen” value in data set [3] is on record as “fully protected”. Also, in data set [3] (100 ppmv VCI with 500 ppmv acetic acid), the “protection of the X65 specimen in the presence of acetic acid” value was “effective in fully protecting”. Also, in data set [3] (400 ppmV at the bottom), the “TLC rate (weight loss)” value is 0.02 mm/y. Moreover, the “weight loss for the calculation of corrosion rate” value in data set [3] (above the solubility limit (100 ppmv and 400 ppmv)) is listed as “no measurable weight loss”. Moreover, in data set [3] (with or without 50 wt. % MEG, 400 ppmV per test matrix), the “average vapor phase corrosion rate” value is listed as “around 0.04 mm/y”. Besides, the BLC rate in data set [5] (setting [8]) was 0.01 mm/y; in data set [5] (400 ppmv injected after electrode insertion (X65 pre-corroded almost one hour), decreased from 2.4 mm/y), 0.05 mm/y. In data set [5], the “inhibition properties” value was “had inhibition properties”.

On to `CCCCSCCCC` [Dibutyl sulfide, reference compound], for which the Solubility limit in data set [2] (setting [7]) is reported as 39.4 mg/L (≈ 269 µM). Besides, the BLC rate entry in data set [5] (setting [8]) is listed as “did not significantly change”. The “inhibition properties” value in data set [5] is “did not”.

For `CCCCCCCCCCCCCCCCS` [C16], the Calculated vapor pressure in data set [1] was 16.7 mmHg.

As for `O=C(O)CS` [Thioglycolic acid], the “effectiveness at inhibiting corrosion” value in data set [6] was “only partially effective”.

For the molecule `CCCCCCCCCCCCS` [1-dodecanethiol], in data set [1], the “Pvapor (vapor pressure)” value is recorded as 0.007 mmHg. Further, the Solubility limit in data set [2] (setting [7]) is reported as 0.18 mg/L (≈ 0.889 µM). In data set [2], the Solubility was 3 ppmV and the Water solubility was ~0.225 µg/mL. The “TLC rate (weight loss)” value in data set [3] (400 ppmV at the bottom) was 0.02 mm/y. This molecule came in with a Solubility in data set [4] of 0.22 ppmV. Besides, the “inhibition properties” value in data set [5] is reported as “had inhibition properties”.

For the molecule `CCCCCCCCCCCCCCCCCS` [C17], the Calculated vapor pressure in data set [1] is on record as 10.7 mmHg.
